# Literature values, collected in PMC7731220, “Pharmacophore Modeling and 3D-QSAR Study of Indole and Isatin Derivatives as Antiamyloidogenic Agents Targeting Alzheimer’s Disease” (Molecules, 2020).
# Biological target: Aβ40 (Homo sapiens, UniProt P05067)
# Details: supplement, training set; 100 µM; cited from earlier work
# Aβ40, sequence (P05067 672-711 limits assumed): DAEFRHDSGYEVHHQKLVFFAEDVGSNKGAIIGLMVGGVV
row,SMILES,% inhib. @ 100 µM [%]
1,O=C1C(=CNNc2ccccc2)C(=O)c2ccccc21 [Compound S1],49±2.0
2,Cc1ccc(NNC=C2C(=O)c3ccccc3C2=O)cc1 [Compound S2],44±4.0
3,O=c1c(=NNc2ccc(Cl)cc2)c(=O)c2ccccc12 [Compound S7],38±5.3
4,O=C1C(/C=N/Nc2ccc(Cl)cc2)=Nc2ccccc21 [Compound S13],33±1.0
5,O=C1C(/C=N/Nc2ccc(Cl)cc2)=Nc2ccc(Br)cc21 [Compound S19],46±7.0
6,O=C1C(/C=N/Nc2ccc(Cl)c(Cl)c2)=Nc2ccc(Br)cc21 [Compound S20],23±2.3
7,COc1ccc2c(c1)/C(=N/Nc1cccc(Cl)c1)C(=O)N2 [Compound S26],72±1
8,COc1ccc2c(c1)/C(=N/Nc1ccc(Cl)cc1)C(=O)N2 [Compound S27],43±2
9,COc1ccc2c(c1)/C(=N/Nc1ccc(C)cc1)C(=O)N2 [Compound S28],29±4
10,COc1ccc2c(c1)/C(=N/Nc1ccc(C(C)(C)C)cc1)C(=O)N2 [Compound S30],66±4
11,COc1ccc2c(c1)/C(=N/Nc1cccc(C(C)(C)C)c1)C(=O)N2 [Compound S32],56±2
12,COc1cc2c(cc1OC)/C(=N/Nc1ccccc1Cl)C(=O)N2 [Compound S37],70±3
13,O=C1Nc2ccccc2/C1=N/Nc1cccc(F)c1 [Compound S42],52±0.9
14,O=C1Nc2cc(Cl)c(F)cc2/C1=N/Nc1ccc(Cl)cc1 [Compound S43],28±3.7
15,O=C1Nc2ccc(Br)cc2/C1=N/Nc1ccc(Cl)cc1 [Compound S44],63±4

# Same assay, conditions: supplement, training set; cited from earlier work
row,SMILES,IC50 [µM]
1,CC(C)c1ccc(NNC=C2C(=O)c3ccccc3C2=O)cc1 [Compound S3],18
2,O=C1C(=CNNc2ccccc2Cl)C(=O)c2ccccc21 [Compound S4],32
3,O=C1C(=CNNc2cccc(Cl)c2)C(=O)c2ccccc21 [Compound S5],18
4,O=C1C(=CNNc2ccc(Cl)cc2)C(=O)c2ccccc21 [Compound S6],23
5,Cc1ccc(N/N=C/C2=Nc3ccccc3C2=O)cc1 [Compound S9],3.6
6,CC(C)c1ccc(N/N=C/C2=Nc3ccccc3C2=O)cc1 [Compound S10],1.4
7,O=C1C(/C=N/Nc2ccccc2Cl)=Nc2ccccc21 [Compound S11],13
8,O=C1C(/C=N/Nc2cccc(Cl)c2)=Nc2ccccc21 [Compound S12],2.5
9,O=C1C(/C=N/Nc2ccccc2)=Nc2ccc(Br)cc21 [Compound S14],35
10,Cc1ccc(N/N=C/C2=Nc3ccc(Br)cc3C2=O)cc1 [Compound S15],51
11,CC(C)c1ccc(N/N=C/C2=Nc3ccc(Br)cc3C2=O)cc1 [Compound S16],23
12,O=C1C(/C=N/Nc2ccccc2Cl)=Nc2ccc(Br)cc21 [Compound S17],7.8
13,O=C1C(/C=N/Nc2cccc(Cl)c2)=Nc2ccc(Br)cc21 [Compound S18],4.4
14,COc1ccc(N/N=C2\C(=O)Nc3ccccc32)cc1 [Compound S21],13
15,COc1cc2c(cc1OC)/C(=N/Nc1ccccc1)C(=O)N2 [Compound S25],63
16,COc1ccc2c(c1)/C(=N/Nc1ccc(C(C)(C)C)cc1)C(=O)N2 [Compound S30],15
17,COc1ccc(N/N=C2\C(=O)Nc3ccc(OC)cc32)cc1 [Compound S33],3.7
18,COc1ccc2c(c1)NC(=O)/C2=N\Nc1ccc(C(C)C)cc1 [Compound S36],7.1
19,COc1cc2c(cc1OC)/C(=N/Nc1cccc(Cl)c1)C(=O)N2 [Compound S38],17
20,COc1cc2c(cc1OC)/C(=N/Nc1ccc(Cl)cc1)C(=O)N2 [Compound S39],33
21,COc1cc2c(cc1OC)/C(=N/Nc1ccc(C(C)C)cc1)C(=O)N2 [Compound S40],4.4
22,COc1ccc(N/N=C2\C(=O)Nc3cc(OC)c(OC)cc32)cc1 [Compound S41],22

# Same assay, conditions: supplement; 100 µM; value marked (II); cited from earlier work
row,SMILES,% inhib. @ 100 µM (II) [%]
1,O=C1Nc2ccccc2/C1=N/Nc1ccccc1 [Compound S31],61±0.7
